Data reported in patent publication US11084790B2, “Insoluble complex or solvate thereof, pharmaceutical composition and use thereof” (Fruithy Holdings Limited, priority 2017, dated 2021).
In brackets after ≈: the same amount, converted by molar mass.

Assay: Test on the solubility in a simulated body fluid
Format: physicochemical
Settings: for Compound concentration: Pamoic acid / Compound concentration: Ropivacaine / solubility / Compound concentration: Bupivacaine: 0.01 M PBS pH 7.4, 37° C.
Procedure: Test on the Solubility in a Simulated Body Fluid
The concentration of the drug dissolved in the PBS buffered solution was determined with an HPLC-a method.

| SMILES | Compound concentration: Pamoic acid (5 min) | Compound concentration: Pamoic acid (15 min) | Compound concentration: Pamoic acid (30 min) | Compound concentration: Pamoic acid (1 h) | Compound concentration: Pamoic acid (2 h) | Compound concentration: Pamoic acid (6 h) | Compound concentration: Pamoic acid (24 h) | stability of the suspension (ratio between acid radical and basic group) (simulated body fluid) | solubility (simulated body fluid) | Compound concentration: Bupivacaine (5 min) | Compound concentration: Bupivacaine (15 min) | Compound concentration: Bupivacaine (30 min) | Compound concentration: Bupivacaine (1 h) | Compound concentration: Bupivacaine (2 h) | Compound concentration: Bupivacaine (6 h) | Compound concentration: Bupivacaine (24 h) | other results |
| --- | --- | --- | --- | --- | --- | --- | --- | --- | --- | --- | --- | --- | --- | --- | --- | --- | --- |
| CCCN1CCCC[C@H]1C(=O)Nc1c(C)cccc1C.O=C(O)c1cc2ccccc2c(Cc2c(O)c(C(=O)O)cc3ccccc23)c1O [Preparation Example 9, mono(ropivacaine) pamoate] | 345.9 µM | 601.5 µM | 880.3 µM | 1280.8 µM | 1668.4 µM | 1953.9 µM | 2052.3 µM | stable | about 2.0 mM | – | – | – | – | – | – | – | Compound concentration: Ropivacaine (5 min): 347.9 µM; Compound concentration: Ropivacaine (15 min): 602.6 µM; Compound concentration: Ropivacaine (30 min): 887 µM; Compound concentration: Ropivacaine (1 h): 1285.6 µM; Compound concentration: Ropivacaine (2 h): 1660.8 µM; Compound concentration: Ropivacaine (6 h): 1944 µM; Compound concentration: Ropivacaine (24 h): 1972 µM |
| CCCCN1CCCCC1C(=O)Nc1c(C)cccc1C.CCCCN1CCCCC1C(=O)Nc1c(C)cccc1C.O=C(O)c1cc2ccccc2c(Cc2c(O)c(C(=O)O)cc3ccccc23)c1O [Preparation Example 12, bis(bupivacaine) pamoate] | 73.6 µM | 107 µM | 127.4 µM | 137.5 µM | 140 µM | 149.7 µM | 142.9 µM | stable | about 0.3 mM | 147.5 µM | 210.1 µM | 247.4 µM | 267.2 µM | 280.2 µM | 290.8 µM | 284.8 µM | – |
| CCCCN1CCCCC1C(=O)Nc1c(C)cccc1C.CCCCN1CCCCC1C(=O)Nc1c(C)cccc1C.O=C(O)c1cc2ccccc2c(Cc2c(O)c(C(=O)O)cc3ccccc23)c1O [Preparation Example 29, bis(bupivacaine) pamoate] | 78.2 µM | 97.3 µM | 122.1 µM | 119.5 µM | 140 µM | 145 µM | 151.6 µM | stable | about 0.3 mM | 159.8 µM | 196.9 µM | 241.5 µM | 269.9 µM | 271.3 µM | 275.1 µM | 305 µM | – |
| CCCCN1CCCCC1C(=O)Nc1c(C)cccc1C.CCCCN1CCCCC1C(=O)Nc1c(C)cccc1C.O=C(O)c1cc2ccccc2c(Cc2c(O)c(C(=O)O)cc3ccccc23)c1O [Preparation Example 30, bis(bupivacaine) pamoate] | 75.7 µM | 111.6 µM | 128.5 µM | 135.6 µM | 130.8 µM | 137.9 µM | 140.2 µM | stable | about 0.3 mM | 142.3 µM | 218.8 µM | 233.7 µM | 280.5 µM | 277.3 µM | 287.2 µM | 286.9 µM | – |
| CCCN1CCCC[C@H]1C(=O)Nc1c(C)cccc1C [Ropivacaine free base, reference compound] | – | – | – | – | – | – | – | – | – | – | – | – | – | – | – | – | solubility at 24 h (phosphate buffered saline (simulated body fluid), 37 °C, aqueous buffer, thermodynamic from solid, simulated body fluid, 0.01 M PBS at pH 7.4, read-out: Saturated solubility): 1360 µM (≈ 373 µg/mL) |
| CCCCN1CCCCC1C(=O)Nc1c(C)cccc1C.CCCCN1CCCCC1C(=O)Nc1c(C)cccc1C.O=C(O)c1cc2ccccc2c(Cc2c(O)c(C(=O)O)cc3ccccc23)c1O [bis(bupivacaine) pamoate] | – | – | – | – | – | – | – | – | – | – | – | – | – | – | – | – | Saturated solubility (simulated body fluid, 0.01 M PBS at pH 7.4): 300 µM |
